Results: the NIST ThermoML archive (doi:10.1021/acs.jced.7b00347)
± gives the expanded uncertainty stated by the source.

Test: mn = molality of the nth substance listed, in mol/kg
Details: for surface tension liquid-gas: Ring tensiometer; for electrical conductivity: 100 kPa, Liquid, Alternating current cell with electrodes

Question: Which results are given for `CCCCCCCCCCCC[NH+](CCO)CC(C)O.[Cl-]` (stereo not drawn) + O?
Answer: surface tension liquid-gas (303.15 K, m1 = 3.859e-05): 42.83 ± 0.58 mN/m; surface tension liquid-gas (303.15 K, m1 = 7.717e-05): 38 ± 0.52 mN/m; surface tension liquid-gas (303.15 K, m1 = 0.0001544): 32.62 ± 0.46 mN/m; surface tension liquid-gas (303.15 K, m1 = 0.0002315): 29.91 ± 0.44 mN/m; surface tension liquid-gas (303.15 K, m1 = 0.0002797): 28.96 ± 0.43 mN/m; surface tension liquid-gas (303.15 K, m1 = 0.0007717): 28.21 ± 0.42 mN/m; surface tension liquid-gas (303.15 K, m1 = 0.001543): 27.64 ± 0.42 mN/m; surface tension liquid-gas (303.15 K, m1 = 0.002315): 27.64 ± 0.42 mN/m; surface tension liquid-gas (303.15 K, m1 = 0.003087): 27.64 ± 0.42 mN/m; electrical conductivity (303.15 K, m1 = 1.54e-05): 0.00051 ± 2.8e-05 S/m; electrical conductivity (303.15 K, m1 = 3.44e-05): 0.000593 ± 3.3e-05 S/m; electrical conductivity (303.15 K, m1 = 5.34e-05): 0.000676 ± 3.7e-05 S/m; electrical conductivity (303.15 K, m1 = 7.23e-05): 0.000759 ± 4.2e-05 S/m; electrical conductivity (303.15 K, m1 = 9.13e-05): 0.000841 ± 4.6e-05 S/m; electrical conductivity (303.15 K, m1 = 0.0001102): 0.000924 ± 7.1e-05 S/m; electrical conductivity (303.15 K, m1 = 0.0001292): 0.00101 ± 5.9e-05 S/m; electrical conductivity (303.15 K, m1 = 0.0001482): 0.00109 ± 7.6e-05 S/m; electrical conductivity (303.15 K, m1 = 0.0001671): 0.00117 ± 8.2e-05 S/m; electrical conductivity (303.15 K, m1 = 0.0001861): 0.00126 ± 0.00022 S/m; electrical conductivity (303.15 K, m1 = 0.0002051): 0.00134 ± 7.4e-05 S/m; electrical conductivity (303.15 K, m1 = 0.000224): 0.00142 ± 7.9e-05 S/m; electrical conductivity (303.15 K, m1 = 0.000243): 0.0015 ± 8.3e-05 S/m; electrical conductivity (303.15 K, m1 = 0.0002619): 0.00159 ± 0.00018 S/m; electrical conductivity (303.15 K, m1 = 0.0002809): 0.00167 ± 0.0001 S/m; electrical conductivity (303.15 K, m1 = 0.0003067): 0.00174 ± 0.0001 S/m; electrical conductivity (303.15 K, m1 = 0.0003326): 0.00181 ± 0.00011 S/m; electrical conductivity (303.15 K, m1 = 0.0003584): 0.00188 ± 0.0001 S/m; electrical conductivity (303.15 K, m1 = 0.0003842): 0.00195 ± 0.00011 S/m; electrical conductivity (303.15 K, m1 = 0.0004101): 0.00202 ± 0.00015 S/m; electrical conductivity (303.15 K, m1 = 0.0004359): 0.00209 ± 0.00012 S/m; electrical conductivity (303.15 K, m1 = 0.0004617): 0.00216 ± 0.00019 S/m; electrical conductivity (303.15 K, m1 = 0.0004876): 0.00223 ± 0.00013 S/m; electrical conductivity (303.15 K, m1 = 0.0005134): 0.0023 ± 0.0003 S/m; electrical conductivity (303.15 K, m1 = 0.0005392): 0.00237 ± 0.00013 S/m; electrical conductivity (303.15 K, m1 = 0.0005651): 0.00244 ± 0.00014 S/m; electrical conductivity (303.15 K, m1 = 0.0005909): 0.00251 ± 0.00016 S/m; electrical conductivity (303.15 K, m1 = 0.0006167): 0.00258 ± 0.00014 S/m; electrical conductivity (303.15 K, m1 = 0.0006426): 0.00265 ± 0.00015 S/m; electrical conductivity (303.15 K, m1 = 0.0006684): 0.00272 ± 0.00036 S/m; electrical conductivity (303.15 K, m1 = 0.0006942): 0.00279 ± 0.00015 S/m; electrical conductivity (303.15 K, m1 = 0.0007201): 0.00285 ± 0.00016 S/m; electrical conductivity (303.15 K, m1 = 0.0007459): 0.00293 ± 0.00024 S/m; electrical conductivity (303.15 K, m1 = 0.0007717): 0.003 ± 0.00016 S/m; surface tension liquid-gas (308.15 K, m1 = 8.952e-06): 50.44 ± 0.67 mN/m; surface tension liquid-gas (308.15 K, m1 = 1.543e-05): 46.51 ± 0.62 mN/m; surface tension liquid-gas (308.15 K, m1 = 3.087e-05): 41.89 ± 0.57 mN/m; surface tension liquid-gas (308.15 K, m1 = 3.859e-05): 40.38 ± 0.55 mN/m; surface tension liquid-gas (308.15 K, m1 = 7.717e-05): 35.57 ± 0.49 mN/m; surface tension liquid-gas (308.15 K, m1 = 0.0001544): 31.04 ± 0.45 mN/m; surface tension liquid-gas (308.15 K, m1 = 0.0002624): 27.74 ± 0.42 mN/m; surface tension liquid-gas (308.15 K, m1 = 0.0003087): 27.74 ± 0.42 mN/m; surface tension liquid-gas (308.15 K, m1 = 0.0007717): 27.55 ± 0.42 mN/m; surface tension liquid-gas (308.15 K, m1 = 0.001543): 27.08 ± 0.41 mN/m; surface tension liquid-gas (308.15 K, m1 = 0.002315): 26.79 ± 0.41 mN/m; surface tension liquid-gas (308.15 K, m1 = 0.003087): 26.79 ± 0.41 mN/m; electrical conductivity (308.15 K, m1 = 1.54e-05): 0.00061 ± 3.4e-05 S/m; electrical conductivity (308.15 K, m1 = 3.51e-05): 0.000702 ± 3.9e-05 S/m; electrical conductivity (308.15 K, m1 = 5.47e-05): 0.000794 ± 4.5e-05 S/m; electrical conductivity (308.15 K, m1 = 7.43e-05): 0.000886 ± 5.1e-05 S/m; electrical conductivity (308.15 K, m1 = 9.39e-05): 0.000978 ± 5.7e-05 S/m; electrical conductivity (308.15 K, m1 = 0.0001136): 0.00107 ± 6.3e-05 S/m; electrical conductivity (308.15 K, m1 = 0.0001332): 0.00116 ± 6.9e-05 S/m; electrical conductivity (308.15 K, m1 = 0.0001528): 0.00125 ± 7.5e-05 S/m; electrical conductivity (308.15 K, m1 = 0.0001724): 0.00135 ± 8.1e-05 S/m; electrical conductivity (308.15 K, m1 = 0.000192): 0.00144 ± 8.7e-05 S/m; electrical conductivity (308.15 K, m1 = 0.0002117): 0.00153 ± 9.4e-05 S/m; electrical conductivity (308.15 K, m1 = 0.0002313): 0.00162 ± 0.0001 S/m; electrical conductivity (308.15 K, m1 = 0.0002509): 0.00171 ± 0.00011 S/m; electrical conductivity (308.15 K, m1 = 0.0002705): 0.00181 ± 0.00011 S/m; electrical conductivity (308.15 K, m1 = 0.0002902): 0.0019 ± 0.00012 S/m; electrical conductivity (308.15 K, m1 = 0.0003169): 0.00198 ± 0.00012 S/m; electrical conductivity (308.15 K, m1 = 0.0003437): 0.00207 ± 0.00013 S/m; electrical conductivity (308.15 K, m1 = 0.0003704): 0.00215 ± 0.00014 S/m; electrical conductivity (308.15 K, m1 = 0.0003972): 0.00224 ± 0.00014 S/m; electrical conductivity (308.15 K, m1 = 0.0004239): 0.00232 ± 0.00015 S/m; electrical conductivity (308.15 K, m1 = 0.0004507): 0.00241 ± 0.00015 S/m; electrical conductivity (308.15 K, m1 = 0.0004774): 0.00249 ± 0.00016 S/m; electrical conductivity (308.15 K, m1 = 0.0005042): 0.00258 ± 0.00016 S/m; electrical conductivity (308.15 K, m1 = 0.0005309): 0.00266 ± 0.00017 S/m; electrical conductivity (308.15 K, m1 = 0.0005577): 0.00275 ± 0.00017 S/m; electrical conductivity (308.15 K, m1 = 0.0005845): 0.00283 ± 0.00017 S/m; electrical conductivity (308.15 K, m1 = 0.0006112): 0.00291 ± 0.00018 S/m; electrical conductivity (308.15 K, m1 = 0.000638): 0.003 ± 0.00018 S/m; electrical conductivity (308.15 K, m1 = 0.0006647): 0.00308 ± 0.00019 S/m; electrical conductivity (308.15 K, m1 = 0.0006915): 0.00317 ± 0.00019 S/m; electrical conductivity (308.15 K, m1 = 0.0007182): 0.00325 ± 0.00019 S/m; electrical conductivity (308.15 K, m1 = 0.000745): 0.00334 ± 0.0002 S/m; electrical conductivity (308.15 K, m1 = 0.0007717): 0.00342 ± 0.0002 S/m
